# Literature values, collected in US7771758B2, “Extract of mad-dog skullcap” (Tom's of Maine, priority 2002, dated 2010).
# What was measured:
# [1] = tested on: benzodiazepine site of the GABAA receptor; conditions: in vitro; flavones isolated from Scutellaria baicalensis
Structure (SMILES),ability to bind to the benzodiazepine site of the GABAA receptor [1],intestinal absorption (in vivo),conjugation in the plasma (plasma),transformation by intestinal bacteria (intestinal bacteria)
"O=c1cc(-c2ccccc2)oc2cc(O)c(O)c(O)c12 [Baicalein, baicalein]",weak ligands,readily absorbed intestinally,efficiently conjugated back to baicalin,–
O=C(O)[C@H]1O[C@@H](Oc2cc3oc(-c4ccccc4)cc(=O)c3c(O)c2O)[C@H](O)[C@@H](O)[C@@H]1O [baicalin],weak ligands,–,–,transformed to its aglycon baicalein
COc1c(O)cc2oc(-c3ccccc3)cc(=O)c2c1O [oroxylin A],strong affinity,–,–,–
COc1c(O)cc(O)c2c(=O)cc(-c3ccccc3)oc12 [wogonin],strong affinity,–,–,–
